Biological target: T1, nLucOGG1 in HeLa cells (Homo sapiens, UniProt O15527)
T1 construct: thermal shift read by NanoGlo luminescence
Experiment: Cellular Thermal Shift Assay to measure compound affinity for nLucOGG1 in HeLa cells (CETSA DTm)
Format: cell-based
Settings: 10 μM compound, 37° C. 60 min, Tm vs DMSO control
Procedure: Biological Example 2: Cellular Thermal Shift Assay to Measure Compound Affinity for ^nLucOGG1 in HeLa Cells (CETSA DTm)
Cell Culture and Transfection of Hela Cells with ^nLucOGG1: For all tests, Hela cells were maintained in growth medium, Dulbecco's Minimum Eagle Medium (Multicell: Cat #319-005-CL) supplemented with 10% heat-inactivated fetal bovine serum (Gibco: Cat #12484-028) at 37° C. and 5% CO2 in a humidified tissue culture incubator. Transient transfections were performed using the Lonza 4-D Nucleofector X unit according to the manufacturer's protocol (Lonza Cat #V4XC-1024). Briefly, for each transfection, 1.2×10^6 cells were centrifuged at 1000 RPM for 5 minutes at room temperature before being diluted in 100 μL SE solution containing 18% v/v supplement and 1.5 μg pNF1-N-empty or pNF1-N-OGG1a vector. The total volume was transferred to a 100 μL nucleofection cuvette prior to transfer to the apparatus where HeLa cell nucleofection protocol CN-114 was executed. Following nucleofection, 500 μL complete media was added to the cells in the cuvette before transferring to a 6-well dish containing 1.5 mL of complete media. Cells were left to incubate for 48 hours before performing all cellular thermal shift experiments.
Cellular Thermal Shift Assays for Target Engagement (CETSA): Forty-eight hours following nucleofection, cells were washed once with DPBS−/−(Multicell: Cat #311-425-CL) and lifted with 0.25% Trypsin-EDTA (Multicell: Cat #325-043-CL) prior to dilution in growth medium and centrifugation at 1000 RPM for 5 minutes at room temperature. The resulting cell pellet was then resuspended in growth medium, cells were counted and the volume adjusted to 500 k cells/mL (2×).
For delta Tm determination, OGG1 inhibitor compounds were dissolved in DMSO to a final working concentration of 20 mM. Working solutions were then diluted in complete media to 20 μM or 0.1% DMSO for the vehicle control (2×). 2×OGG1 inhibitor compound solutions or 0.1% DMSO control were then pre-dispensed into MicroAmp Optical 96-well PCR reaction plates (Applied Biosystems: Cat #4346906) at 50 μL/well. Next, 50 μL or 25 k cells/well from the 2× cell suspension was added to the pre-loaded PCR plates. All plates were prepared as duplicates, covered with adhesive plate sealers (Perkin Elmer: Cat #6050185) and left to incubate at 37° C. for 60 minutes. During incubation, sufficient NanoGlo luciferase assay reagents (Promega: Cat #N1120) were left to equilibrate to room temperature in the dark. Immediately before heating the plates, the NanoGlo substrate was mixed with the NanoGlo buffer at a 1:50 ratio. The thermal cycler (Veriti 96-Well Thermal Cycler, Thermo Fisher Scientific) was allowed to reach the designated temperature prior to placement of the PCR plate into the heating block. For Tm determination experiments, duplicate plates containing a fixed concentration of test compound (10 μM final) as well as vehicle control were prepared to perform a 12-point temperature gradient spanning 37-70° C. for 3 minutes. Therefore, two thermal cycler protocols were set up covering two 6-step temperature gradients ranging from 37-52° C. and 52-70° C. Plates were then allowed to cool at room temperature for 5 minutes after the heat treatment followed by transfer of 75 μL of the reaction into a 96-well white polystyrene microplate (Corning: Cat #CLS3903) and addition of 75 μL of the prepared NanoGlo mixture. Microplates were then left to shake in the dark for 5 minutes before total luminescence was measured on a SpectraMax IX3 plate reader. The luminescence value obtained at each temperature was normalized to the luminescence obtained at 37° C. and the ratio obtained was plotted against the temperature. A Boltzman Sigmoidal non-linear regression was applied to the resulting data to determine Tm values and the difference between the Tm value for a given OGG1 inhibitor relative to the DMSO vehicle control was the delta Tm.

T1 sequence (O15527 whole entry): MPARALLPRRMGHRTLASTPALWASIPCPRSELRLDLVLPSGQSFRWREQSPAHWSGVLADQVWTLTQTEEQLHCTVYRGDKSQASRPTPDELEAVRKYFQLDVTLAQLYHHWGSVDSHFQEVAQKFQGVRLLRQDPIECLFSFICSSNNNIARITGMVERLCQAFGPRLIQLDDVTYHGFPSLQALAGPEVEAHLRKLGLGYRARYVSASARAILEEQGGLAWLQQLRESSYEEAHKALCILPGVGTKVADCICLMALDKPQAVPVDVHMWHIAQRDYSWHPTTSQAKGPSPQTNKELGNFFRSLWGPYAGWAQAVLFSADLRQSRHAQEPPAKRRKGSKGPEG

Row | ΔTm at 10 µM | Structure (SMILES)
1 | 6 to 8 °C | COc1cc(NC(=O)[C@H]2CC[C@@H](N3Cc4c(C)ccc(P(C)(C)=O)c4NC3=O)CC2)ccc1C [Example 5, (1s,4s)-4-(8-(Dimethylphosphoryl)-5-methyl-2-oxo-1,2-dihydroquinazolin-3(4H)-yl)-N-(3-methoxy-4-methylphenyl)cyclohexanecarboxamide]
2 | 8 to 10 °C | COc1cc(NC(=O)[C@H]2CC[C@@H](N3Cc4c(C)cc(N5CC6(COC6)C5)cc4NC3=O)CC2)ccc1C [Example 30, (1s,4s)-N-(3-Methoxy-4-methylphenyl)-4-(5-methyl-2-oxo-7-(2-oxa-6-azaspiro[3.3]heptan-6-yl)-1,2-dihydroquinazolin-3(4H)-yl)cyclohexanecarboxamide]
3 | 6 to 8 °C | COc1cc(NC(=O)[C@H]2CC[C@@H](N3Cc4c(C)ccnc4NC3=O)CC2)ccc1C [Example 41, (1s,4s)-N-(3-Methoxy-4-methylphenyl)-4-(5-methyl-2-oxo-1,2-dihydropyrido[2,3-d]pyrimidin-3(4H)-yl)cyclohexanecarboxamide]
4 | 6 to 8 °C | COc1cc(NC(=O)[C@H]2CC[C@@H](N3Cc4c(C)ccc(N5CC6(COC6)C5)c4NC3=O)CC2)ccc1C [Example 35, (1s,4s)-N-(3-Methoxy-4-methylphenyl)-4-(5-methyl-2-oxo-8-(2-oxa-6-azaspiro[3.3]heptan-6-yl)-1,2-dihydroquinazolin-3(4H)-yl)cyclohexanecarboxamide]
5 | 8 to 10 °C | COc1cc(NC(=O)[C@H]2CC[C@@H](N3Cc4c(C)ccc(OC5CNC5)c4NC3=O)CC2)ccc1C [Example 45]
6 | 8 to 10 °C | COc1cc(NC(=O)[C@H]2CC[C@@H](N3Cc4c(C)ccc(C#N)c4NC3=O)CC2)ccc1C [Example 59, (1s,4s)-4-(8-cyano-5-methyl-2-oxo-1,2-dihydroquinazolin-3(4H)-yl)-N-(3-methoxy-4-methylphenyl)cyclohexanecarboxamide]
7 | 6 to 8 °C | COc1cc(NC(=O)[C@H]2CC[C@@H](N3Cc4c(C)cc(OCCN5CC(F)(F)C5)cc4C3=O)CC2)ccc1C [Example 255, (1s,4s)-4-(6-(2-(3,3-Difluoroazetidin-1-yl)ethoxy)-4-methyl-1-oxoisoindolin-2-yl)-N-(3-methoxy-4-methylphenyl)cyclohexanecarboxamide]
8 | 6 to 8 °C | COc1cc(NC(=O)[C@H]2CC[C@@H](N3Cc4c(C)ccc(OC)c4NC3=O)CC2)ccc1C [Example 47, (1s,4s)-N-(3-Methoxy-4-methylphenyl)-4-(8-methoxy-5-methyl-2-oxo-1,2-dihydroquinazolin-3(4H)-yl)cyclohexanecarboxamide]
9 | > 10 °C | COc1cc(NC(=O)[C@H]2CC[C@@H](N3Cc4c(C)ccc(CNC(C)=O)c4NC3=O)CC2)ccc1C [Example 17, (1s,4s)-4-(8-(Acetamidomethyl)-5-methyl-2-oxo-1,2-dihydroquinazolin-3(4H)-yl)-N-(3-methoxy-4-methylphenyl)cyclohexanecarboxamide]
10 | > 10 °C | COc1cc(NC(=O)[C@H]2CC[C@@H](N3Cc4c(C)cc(CN)cc4NC3=O)CC2)ccc1C [Example 28, (1s,4s)-4-(7-(Aminomethyl)-5-methyl-2-oxo-1,2-dihydroquinazolin-3(4H)-yl)-N-(3-methoxy-4-methylphenyl)cyclohexanecarboxamide]
11 | 8 to 10 °C | COc1cc(NC(=O)[C@H]2CC[C@@H](N3Cc4c(C)ccc(OCC5CNC5)c4NC3=O)CC2)ccc1C [Example 44, (1s,4s)-4-(8-(Azetidin-3-ylmethoxy)-5-methyl-2-oxo-1,2-dihydroquinazolin-3(4H)-yl)-N-(3-methoxy-4-methylphenyl)cyclohexanecarboxamide]
12 | 6 to 8 °C | COc1cc(NC(=O)[C@H]2CC[C@@H](N3Cc4ccccc4NC3=O)CC2)ccc1C [Example 67, (1s,4s)-N-(3-methoxy-4-methylphenyl)-4-(2-oxo-1,2-dihydroquinazolin-3(4H)-yl)cyclohexanecarboxamide]

Continued, compound first:

Row | Structure (SMILES) | ΔTm at 10 µM
13 | COc1cc(NC(=O)[C@H]2CC[C@@H](N3Cc4c(C)cnc(CNC(C)=O)c4NC3=O)CC2)ccc1C [Example 19, (1s,4s)-4-(8-(Acetamidomethyl)-5-methyl-2-oxo-1,2-dihydropyrido[3,4-d]pyrimidin-3(4H)-yl)-N-(3-methoxy-4-methylphenyl)cyclohexanecarboxamide] | 8 to 10 °C
14 | COc1ccc(NC(=O)[C@H]2CC[C@@H](N3Cc4c(C)cc(NCCN(C)C)cc4C3=O)CC2)cc1C#N [Example 259, (1s,4s)-N-(3-Cyano-4-methoxyphenyl)-4-(6-(2-(dimethylamino)ethylamino)-4-methyl-1-oxoisoindolin-2-yl)cyclohexanecarboxamide] | 8 to 10 °C
15 | COc1cc(NC(=O)[C@]2(C)CC[C@H](N3Cc4c(C)cccc4C3=O)CC2)ccc1C [Example 277, (1s,4s)-N-(3-methoxy-4-methylphenyl)-1-methyl-4-(4-methyl-1-oxoisoindolin-2-yl)cyclohexane-1-carboxamide] | 8 to 10 °C
16 | CNCCNc1cc(C)c2c(c1)C(=O)N([C@H]1CC[C@@H](C(=O)Nc3ccc(C)c(OC)c3)CC1)C2 [Example 193, (1s,4s)-N-(3-methoxy-4-methylphenyl)-4-(4-methyl-6-(2-(methylamino)ethylamino)-1-oxoisoindolin-2-yl)cyclohexanecarboxamide] | > 10 °C
17 | COc1ccc(NC(=O)[C@]2(C)CC[C@H](N3Cc4c(C)ccc(OC)c4NC3=O)CC2)cc1C (single isomer, unassigned) [Example 11, (1s,4s)-N-(3-methyl-4-methoxyphenyl)-4-(8-methoxy-5-methyl-2-oxo-1,2-dihydroquinazolin-3(4H)-yl)-1-methylcyclohexanecarboxamide] | 8 to 10 °C
18 | COc1ccc(NC(=O)[C@H]2CC[C@@H](N3Cc4c(C)ccnc4NC3=O)CC2)cc1 [Example 15, (1s,4s)-N-(4-methoxyphenyl)-4-(5-methyl-2-oxo-1,2-dihydropyrido[2,3-d]pyrimidin-3(4H)-yl)cyclohexanecarboxamide] | 6 to 8 °C
19 | COc1ccc(NC(=O)[C@H]2CC[C@@H](N3Cc4c(C)cc(NCCN(C)C)cc4C3=O)CC2)cc1Cl [Example 260, (1s,4s)-N-(3-Chloro-4-methoxyphenyl)-4-(6-(2-(dimethylamino)ethylamino)-4-methyl-1-oxoisoindolin-2-yl)cyclohexanecarboxamide] | > 10 °C
20 | COc1ccc(NC(=O)[C@H]2CC[C@@H](N3Cc4c(C)cccc4C3=O)CC2)cc1C#N [Example 239, (1s,4s)-N-(3-Cyano-4-methoxyphenyl)-4-(4-methyl-1-oxoisoindolin-2-yl)cyclohexanecarboxamide] | 6 to 8 °C
21 | COc1ccc(NC(=O)[C@H]2CC[C@@H](N3Cc4c(C)ccnc4NC3=O)CC2)cc1Cl [Example 14, (1s,4s)-N-(3-Chloro-4-methoxyphenyl)-4-(5-methyl-2-oxo-1,2-dihydropyrido[2,3-d]pyrimidin-3(4H)-yl)cyclohexanecarboxamide] | 6 to 8 °C
22 | COc1ccc(NC(=O)[C@H]2CC[C@@H](N3Cc4c(C)cccc4C3=O)CC2)cc1C [Example 227, (1s,4s)-N-(4-Methoxy-3-methylphenyl)-4-(4-methyl-1-oxoisoindolin-2-yl)cyclohexanecarboxamide] | 6 to 8 °C
23 | COc1ccc(NC(=O)[C@H]2CC[C@@H](N3Cc4c(C)cc(NCCN(C)C)cc4C3=O)CC2)cc1C [Example 256, (1s,4s)-4-(6-(2-(Dimethylamino)ethylamino)-4-methyl-1-oxoisoindolin-2-yl)-N-(4-methoxy-3-methylphenyl)cyclohexanecarboxamide] | > 10 °C
